# Measured values published in the supplement of paper PMC5412046.
# Experiments:
# [1] = test system: SB.mhdgc-1; assay: AC50 for growth inhibition (viability) (log10 M); higher = less potent; settings: SB.mhdgc-1 (hereditary c.1380delA CDH1 gastric cancer)
# In short: (§1)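 After 48 h with compound, plates received CellTiter-Glo for 30 min at room temperature and were read for luminescence on a ViewLux. The cells were patient-derived gastric cancer lines of hereditary or sporadic origin, plated at 500 cells in 5 μL medium per 1536 well and pinned with 23 nL compound in DMSO, at 11 threefold dilutions from a final 46 μM. For the log half-maximal activity concentration, DMSO-normalised viability was fitted with four parameters and only high-quality curve classes were kept.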
# [2] = test system: SB.msgc-1; assay: as above; settings: SB.msgc-1 (sporadic gastric cancer)
# In short: as §1
Compound,AC50 for growth inhibition (log10 M) [1],AC50 for growth inhibition (log10 M) [2]
Nc1ccccc1NC(=O)c1ccc(CNC(=O)OCc2cccnc2)cc1 [Entinostat],-4.83,-5.88
CCCCc1oc2ccccc2c1C(=O)c1cc(I)c(OCCN(CC)CC)c(I)c1 [Amiodarone],-4.88,-5.03
NC1=C(Cl)C(=CC=N1)OC2=C(F)C=C(NC(=O)\C3=C\N\C=C(C3=O)\C4=CC=C(F)C=C4)C=C2,-6.43,-4.73
O=C(c1ccc(Nc2nccc(-c3cc4ccccc4s3)n2)cc1)N1CCC(N2CCCC2)CC1 [IKK16],-5.08,-4.88
Nc1nc(Cl)nc2c1ncn2[C@@H]1O[C@H](CO)[C@@H](O)[C@@H]1F [Clofarabine],-7.83,-8.28
C=CC(=O)Nc1cccc(Oc2nc(Nc3ccc(N4CCN(C)CC4)cc3)ncc2Cl)c1 [WZ-3146],-5.18,-5.88
CNC(=O)c1ccc(N2C(=S)N(c3ccc(C#N)c(C(F)(F)F)c3)C(=O)C23CCC3)cc1F [RD-162],-5.08,-5.13
CC1=C(/C=C/C(C)=C/C=C/C(C)=C\C(=O)O)C(C)(C)CCC1 [Isotretinoin],-4.63,-5.33
C[C@H]1CN(C[C@@H](C)O1)CC(=O)NC2=CC=C3SC4=C(CC3=C2)C=CC=C4\C5=C\C(=O)\C=C(/O5)N6CCOCC6,-5.23,-5.28
